Assay results taken from ChEMBL document CHEMBL1139969, “Novel and potent 3-(2,3-dichlorophenyl)-4-(benzyl)-4H-1,2,4-triazole P2X7 antagonists” (Bioorg Med Chem Lett, 2007).
The source made the active and inactive calls. The rule behind the calls is not given here.

Key:
P2X purinoceptor 7 [1] = target: T1, P2X purinoceptor 7 (Homo sapiens, UniProt Q99572); assay: Antagonist activity at human recombinant P2X7 receptor; format: functional
T1 sequence (Q99572 whole entry): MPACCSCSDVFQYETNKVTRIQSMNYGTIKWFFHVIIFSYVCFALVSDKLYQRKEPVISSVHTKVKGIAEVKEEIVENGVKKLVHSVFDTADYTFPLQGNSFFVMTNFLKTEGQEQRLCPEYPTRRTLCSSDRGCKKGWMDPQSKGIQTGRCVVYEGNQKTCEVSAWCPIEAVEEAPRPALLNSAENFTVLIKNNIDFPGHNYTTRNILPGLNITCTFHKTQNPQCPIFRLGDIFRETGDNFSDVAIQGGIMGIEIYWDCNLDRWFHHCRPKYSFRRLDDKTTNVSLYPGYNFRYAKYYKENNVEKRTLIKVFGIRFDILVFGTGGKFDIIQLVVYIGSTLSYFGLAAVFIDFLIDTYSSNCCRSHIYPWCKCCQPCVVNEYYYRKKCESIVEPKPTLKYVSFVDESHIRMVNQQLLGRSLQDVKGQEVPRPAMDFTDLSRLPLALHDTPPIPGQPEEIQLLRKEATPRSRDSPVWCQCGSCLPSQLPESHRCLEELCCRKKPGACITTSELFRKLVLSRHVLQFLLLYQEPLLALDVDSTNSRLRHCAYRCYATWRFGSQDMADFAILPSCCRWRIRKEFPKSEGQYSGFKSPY

THP-1 = assay: Inhibition of IL1-beta release from THP1 cells; format: functional, cell-based; details: Homo sapiens
P2X purinoceptor 7 [2] = target: T2, P2X purinoceptor 7 (Rattus norvegicus, UniProt Q64663); assay: Antagonist activity at rat recombinant P2X7 receptor; format: functional
T2 sequence (Q64663 whole entry): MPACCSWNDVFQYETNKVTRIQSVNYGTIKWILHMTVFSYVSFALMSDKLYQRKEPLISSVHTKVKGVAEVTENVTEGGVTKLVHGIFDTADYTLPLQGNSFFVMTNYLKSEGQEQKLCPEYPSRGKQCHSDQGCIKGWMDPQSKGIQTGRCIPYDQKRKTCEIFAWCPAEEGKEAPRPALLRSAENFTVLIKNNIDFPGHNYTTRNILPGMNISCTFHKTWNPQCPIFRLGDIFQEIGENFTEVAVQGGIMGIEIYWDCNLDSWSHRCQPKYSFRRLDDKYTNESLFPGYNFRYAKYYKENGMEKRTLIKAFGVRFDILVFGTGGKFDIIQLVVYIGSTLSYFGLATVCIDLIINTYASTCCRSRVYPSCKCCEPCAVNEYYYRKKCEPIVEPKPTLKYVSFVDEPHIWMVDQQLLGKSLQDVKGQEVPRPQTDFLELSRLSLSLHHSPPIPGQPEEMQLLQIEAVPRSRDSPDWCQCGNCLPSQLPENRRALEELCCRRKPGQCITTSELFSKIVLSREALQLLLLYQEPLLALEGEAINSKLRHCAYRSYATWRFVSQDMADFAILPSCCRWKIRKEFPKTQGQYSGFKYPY

Rattus norvegicus = organism: Rattus norvegicus; assay: Antinociceptive activity in rat Chung model of neuropathic pain assessed as reversal of allodynia after 30 mins; format: functional
[3] = Bioavailability in ip dosed rat Chung model of neuropathic pain; format: ADME, organism-based; details: in vivo
[4] = Half life in ip dosed rat Chung model of neuropathic pain; format: ADME, organism-based; details: in vivo
[5] = Oral bioavailability in rat at 5 umol/kg; format: ADME, organism-based; details: in vivo
[6] = Clearance in rat at 5 umol/kg, iv; format: ADME, organism-based; details: in vivo
[7] = Volume of distribution at terminal phase in rat at 5 umol/kg, iv; format: ADME, organism-based; details: in vivo
[8] = Tmax in rat at 5 umol/kg, ip; format: ADME, organism-based; details: in vivo
[9] = Cmax in rat at 5 umol/kg, ip; format: ADME, organism-based; set-up: dose 5 umol/kg, route intraperitoneal; details: in vivo
[10] = target: T3, P2X purinoceptor 1 (Homo sapiens) (UniProt P51575); assay: Activity at human P2X1 receptor at 10 uM
T3 sequence (whole entry): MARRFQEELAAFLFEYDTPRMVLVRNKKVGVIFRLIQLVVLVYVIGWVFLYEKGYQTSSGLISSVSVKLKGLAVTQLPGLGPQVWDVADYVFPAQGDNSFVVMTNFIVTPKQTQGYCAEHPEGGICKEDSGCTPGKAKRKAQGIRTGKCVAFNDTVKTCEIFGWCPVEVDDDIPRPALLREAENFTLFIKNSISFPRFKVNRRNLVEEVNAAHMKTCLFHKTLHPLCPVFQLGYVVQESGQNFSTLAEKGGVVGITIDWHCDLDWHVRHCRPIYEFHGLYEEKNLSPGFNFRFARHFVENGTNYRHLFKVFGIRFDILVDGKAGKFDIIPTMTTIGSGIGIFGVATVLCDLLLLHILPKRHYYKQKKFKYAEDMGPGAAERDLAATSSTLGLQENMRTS

[11] = target: T4, P2X purinoceptor 2 (Homo sapiens) (UniProt Q9UBL9); assay: Antagonist activity at human P2X2 receptor at 10 uM; format: functional
T4 sequence (whole entry): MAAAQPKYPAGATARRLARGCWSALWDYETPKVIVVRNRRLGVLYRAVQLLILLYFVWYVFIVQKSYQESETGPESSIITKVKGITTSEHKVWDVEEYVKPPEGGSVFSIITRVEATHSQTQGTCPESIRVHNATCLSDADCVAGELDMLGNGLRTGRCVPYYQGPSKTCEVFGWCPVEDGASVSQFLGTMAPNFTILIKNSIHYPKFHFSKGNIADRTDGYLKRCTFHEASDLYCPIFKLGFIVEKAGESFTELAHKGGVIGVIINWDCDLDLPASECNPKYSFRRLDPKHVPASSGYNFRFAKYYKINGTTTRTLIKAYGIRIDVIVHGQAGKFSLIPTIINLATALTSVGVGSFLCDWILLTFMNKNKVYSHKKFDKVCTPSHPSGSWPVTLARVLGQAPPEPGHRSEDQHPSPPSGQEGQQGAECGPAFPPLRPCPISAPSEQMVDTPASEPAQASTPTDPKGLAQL

[12] = target: T5, P2X purinoceptor 4 (Homo sapiens) (UniProt Q99571); assay: Activity at human P2X4 receptor at 10 uM
T5 sequence (whole entry): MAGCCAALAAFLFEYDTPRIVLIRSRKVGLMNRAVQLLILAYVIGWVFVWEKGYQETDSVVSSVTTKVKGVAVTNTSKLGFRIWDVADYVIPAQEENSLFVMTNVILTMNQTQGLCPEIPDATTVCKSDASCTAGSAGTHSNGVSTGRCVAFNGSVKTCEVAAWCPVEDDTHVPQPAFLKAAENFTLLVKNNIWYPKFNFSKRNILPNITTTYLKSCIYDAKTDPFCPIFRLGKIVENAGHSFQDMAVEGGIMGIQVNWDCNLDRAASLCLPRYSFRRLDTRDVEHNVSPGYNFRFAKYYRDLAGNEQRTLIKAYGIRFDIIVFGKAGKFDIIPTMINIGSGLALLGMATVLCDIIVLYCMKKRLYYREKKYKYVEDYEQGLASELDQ

[13] = target: P2Y purinoceptor 1 (Homo sapiens) (UniProt P47900); assay: Activity at human P2Y1 receptor at 10 uM
[14] = target: P2Y purinoceptor 2 (Homo sapiens) (UniProt P41231); assay: Activity at human P2Y2 receptor at 10 uM
Homo sapiens = organism: Homo sapiens; assay: Activity at human P2X2/3 receptor at 10 uM
[15] = target: Translocator protein (Homo sapiens) (UniProt P30536); assay: Activity at peripheral benzodiazepine receptor at 10 uM
Sequence of Translocator protein (Homo sapiens) (P30536 whole entry): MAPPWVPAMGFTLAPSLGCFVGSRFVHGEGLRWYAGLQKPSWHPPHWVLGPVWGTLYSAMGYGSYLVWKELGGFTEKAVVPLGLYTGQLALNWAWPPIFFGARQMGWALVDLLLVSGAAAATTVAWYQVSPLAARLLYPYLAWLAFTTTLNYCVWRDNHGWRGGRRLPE

Sequence of P2Y purinoceptor 2 (Homo sapiens) (P41231 whole entry): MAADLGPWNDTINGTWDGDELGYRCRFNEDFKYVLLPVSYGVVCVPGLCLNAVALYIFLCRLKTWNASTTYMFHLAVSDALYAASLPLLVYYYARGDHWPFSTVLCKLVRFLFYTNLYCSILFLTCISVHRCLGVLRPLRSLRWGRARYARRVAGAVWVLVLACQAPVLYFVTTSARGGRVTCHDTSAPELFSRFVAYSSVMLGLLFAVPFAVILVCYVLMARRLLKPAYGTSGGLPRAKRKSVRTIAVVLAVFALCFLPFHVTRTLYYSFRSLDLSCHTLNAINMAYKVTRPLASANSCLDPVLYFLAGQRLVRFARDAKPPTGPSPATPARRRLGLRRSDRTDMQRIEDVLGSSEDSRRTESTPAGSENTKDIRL
Sequence of P2Y purinoceptor 1 (Homo sapiens) (P47900 whole entry): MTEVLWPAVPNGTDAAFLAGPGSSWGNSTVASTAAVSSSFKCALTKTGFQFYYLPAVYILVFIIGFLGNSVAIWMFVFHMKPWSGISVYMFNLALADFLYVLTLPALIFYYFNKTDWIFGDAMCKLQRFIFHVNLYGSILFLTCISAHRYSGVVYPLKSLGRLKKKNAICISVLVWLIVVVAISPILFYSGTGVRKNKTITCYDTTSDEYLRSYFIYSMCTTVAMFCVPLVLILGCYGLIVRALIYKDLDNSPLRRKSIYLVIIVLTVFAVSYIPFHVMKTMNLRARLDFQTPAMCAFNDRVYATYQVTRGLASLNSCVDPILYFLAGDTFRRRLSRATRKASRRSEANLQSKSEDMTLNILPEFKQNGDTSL

SMILES	IC50 (P2X purinoceptor 7 [1]) [nM]	other results
COc1cccc(Cn2cnnc2-c2cccc(Cl)c2Cl)c1	214	
Fc1ccc(C(F)(F)F)cc1Cn1cnnc1-c1cccc(Cl)c1Cl	912	
Clc1ccc(Cn2cnnc2-c2cccc(Cl)c2Cl)c(Cl)c1	331	
COc1ccccc1Cn1cnnc1-c1cccc(Cl)c1Cl	191	
CC(c1ccccc1)n1cnnc1-c1cccc(Cl)c1Cl (stereo not given)	1050	
Clc1cccc(-c2cncn2Cc2ccccc2)c1Cl	1820	
Clc1cccc(-c2cnnn2Cc2ccccc2)c1Cl	603	
CSc1ccccc1Cn1cnnc1-c1cccc(C(F)(F)F)c1Cl	26.9	
COc1cccc(Cn2cnnc2-c2cccc(Cl)c2Cl)c1OC	132	
Fc1ccc(C(F)(F)F)c(Cn2cnnc2-c2cccc(Cl)c2Cl)c1	49	
Clc1cccc(-c2nncn2[C@@H]2CCc3ccccc32)c1Cl	19.1	IC50 (THP-1): 75.9 nM; IC50 (P2X purinoceptor 7 [2]): 77.6 nM
Cc1ccccc1Cn1cnnc1-c1cccc(Cl)c1Cl	77.6	IC50 (THP-1): 372 nM; IC50 (P2X purinoceptor 7 [2]): 209 nM; Efficacy (Rattus norvegicus): 68%; ED50 (Rattus norvegicus; Rattus norvegicus, 0.5 h): 125 µmol/kg; bioavailability [3]: 62%; half-life [4]: 1.7 h; bioavailability [5]: 15%; clearance [6]: 51.7 mL/min/kg; Vd [7]: 1.9 L/kg; Tmax [8]: 0.33 h; Cmax [9]: 210 ng/mL; Activity [10]: inactive; Activity [11]: inactive; Activity [12]: inactive; Activity [13]: inactive; Activity [14]: inactive; Activity (Homo sapiens): inactive; Activity [15]: 86%
Clc1cccc(-c2nncn2Cc2ccccc2)c1Cl	525	
FC(F)(F)c1cccc(Cn2cnnc2-c2cccc(Cl)c2Cl)c1	1290	
Clc1cccc(-c2nnnn2Cc2ccccc2)c1Cl		IC50 (THP-1): 2510 nM; IC50 (P2X purinoceptor 7 [2]): 75.9 nM
O=C(NCC12CC3CC(CC(C3)C1)C2)c1cccc(Cl)c1Cl	64.6	IC50 (P2X purinoceptor 7 [2]): 813 nM

Continued by falling IC50 (P2X purinoceptor 7 [1]), values first:

IC50 (P2X purinoceptor 7 [1]) [nM]	SMILES	other results
13200	CC(C)(c1ccccc1)n1cnnc1-c1cccc(Cl)c1Cl	
8910	FC(F)(F)c1ccc(Cn2cnnc2-c2cccc(Cl)c2Cl)cc1	
6030	Clc1cccc(-c2ccnn2Cc2ccccc2)c1Cl	
427	Clc1cccc(-n2nncc2Cc2ccccc2)c1Cl	
302	Clc1cccc(-c2ncnn2Cc2ccccc2)c1Cl	
209	Clc1cccc(-n2ncnc2Cc2ccccc2)c1Cl	
191	Clc1cccc(Cn2cnnc2-c2cccc(Cl)c2Cl)c1Cl	
145	CS(=O)(=O)c1ccccc1Cn1cnnc1-c1cccc(C(F)(F)F)c1Cl	
138	Clc1ccc(Cl)c(Cn2cnnc2-c2cccc(Cl)c2Cl)c1	
132	FC(F)(F)c1ccccc1Cn1cnnc1-c1cccc(Cl)c1Cl	
117	FC(F)c1ccccc1Cn1cnnc1-c1cccc(Cl)c1Cl	
58.9	Clc1cccc(-c2nncn2Cc2cccc3ccccc23)c1Cl	
50.1	Clc1cccc(-c2nncn2[C@H]2CCc3ccccc32)c1Cl	
49	CSc1ccccc1Cn1cnnc1-c1cccc(Cl)c1Cl	
47.9	Cc1ccc(F)cc1Cn1cnnc1-c1cccc(Cl)c1Cl	IC50 (THP-1): 240 nM; IC50 (P2X purinoceptor 7 [2]): 550 nM
